This note sets out measurements from paper PMC5733478, “A Non-imaging High Throughput Approach to Chemical Library Screening at the Unmodified Adenosine-A3 Receptor in Living Cells” (Frontiers in Pharmacology, 2017).

This test addresses T1, human A3AR (Homo sapiens, UniProt P0DMS8).
T1 construct: expressed in transfected cells
T1 sequence (P0DMS8 1-318): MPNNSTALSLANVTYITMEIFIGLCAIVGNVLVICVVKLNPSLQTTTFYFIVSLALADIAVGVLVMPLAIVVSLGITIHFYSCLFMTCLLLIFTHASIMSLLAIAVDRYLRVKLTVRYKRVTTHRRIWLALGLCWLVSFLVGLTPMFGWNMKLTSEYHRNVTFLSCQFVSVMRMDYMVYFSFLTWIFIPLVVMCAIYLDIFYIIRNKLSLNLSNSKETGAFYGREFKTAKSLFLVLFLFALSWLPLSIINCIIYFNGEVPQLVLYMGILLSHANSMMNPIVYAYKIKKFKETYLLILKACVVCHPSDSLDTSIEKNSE
Nature of the test: LOPAC library primary screen: single concentration (10 μM) inhibition of 25 nM CA200645 binding, PHERAstar FS.

[1] abbreviates: % of control wells (1% DMSO and 25 nM CA200645), compounds at 10 µM, whole live cells expressing the A3AR, mean ± SD, three experiments in duplicate.

Counter-ions that a name gives are not always drawn. Like-named read-outs stand apart in the source and are kept apart here.

Turning to `COc1cc(C(O)CO)ccc1OS(=O)(=O)[O-].[K+]` (centres unmarked) [MHPG sulfate potassium], the “% 25 nM CA200645 binding” value is 102.8 ± 6.8%.

As to `NCCCCN` [Putrescine dihydrochloride], the “% 25 nM CA200645 binding” value is 106.2 ± 11.7%.

Take `CCC1(c2ccccc2)C(=O)NCNC1=O` [Primidone]: the “% 25 nM CA200645 binding” value is listed as 96.1 ± 4.9%.

In the case of `Nc1nccc2c1ncn2[C@@H]1O[C@H](CO)[C@@H](O)[C@H]1O` [3-deazaadenosine], the “% 25 nM CA200645 binding” value came to 93.8 ± 11.9%.

In the case of `COc1ccc(C(CN(C)C)C2(O)CCCCC2)cc1` (centres unmarked) [Venlafaxine hydrochloride], the “% 25 nM CA200645 binding” value is recorded as 97.3 ± 8.5%.

Consider `N[C@@H](CCCC(=O)O)C(=O)O` [L-2-aminoadipic acid], for which the “% 25 nM CA200645 binding” value stood at 101.5 ± 9.7%.

Consider `CN(C)CC[C@@H](c1ccc(Cl)cc1)c1ccccn1` [(+)-Chlorpheniramine maleate], for which the “% 25 nM CA200645 binding” value turned out to be 96.8 ± 6.2%.

As for `O=c1c(-c2ccc(O)cc2)coc2cc(O)cc(O)c12` [Genistein], under setting [1], the “% 25 nM CA200645 binding” value amounted to 66.1 ± 12.2%.

`CN(C)C(=O)Oc1cccc([N+](C)(C)C)c1` [Neostigmine bromide]: the “% 25 nM CA200645 binding” value is recorded as 100.2 ± 23.4%.

As for `Br.COc1ccccc1N1CCN(CCCCN2C(=O)c3ccccc3C2=O)CC1` [NAN-190 hydrobromide], the “% 25 nM CA200645 binding” value amounted to 91.1 ± 29.0%.

Turning to `CO[C@H]1O[C@@H]2O[C@@]3(C)CC[C@H]4[C@H](C)CC[C@@H]([C@H]1C)[C@@]24OO3` [Artemether], the “% 25 nM CA200645 binding” value under setting [1] is given as 99.4 ± 9.9%.

In the case of `Cn1c(=O)c2c(nc(C=Cc3cccc(Cl)c3)n2C)n(C)c1=O` [8-(3-Chlorostyryl)caffeine], the “% 25 nM CA200645 binding” value is reported as 79.6 ± 7.9%.

On to `COc1cc(NS(C)(=O)=O)ccc1Nc1c2ccccc2nc2ccccc12` [Amsacrine hydrochloride], for which the “% 25 nM CA200645 binding” value stood at 99.8 ± 8.3%.

Consider `Nc1c[n+](N2CCOCC2)no1.[Cl-]` [3-Morpholinosydnonimine hydrochloride], for which the “% 25 nM CA200645 binding” value was found to be 114.0 ± 15.4%.

As for LY-310,762 hydrochloride, the “% 25 nM CA200645 binding” value is listed as 93.0 ± 7.5%.

As to `CC(C)C(=O)c1c(C(C)C)nn2ccccc12` [Ibudilast], the “% 25 nM CA200645 binding” value worked out at 82.8 ± 12.0%.

As to `O=C1Nc2ccccc2/C1=C1/Nc2ccccc2/C1=N\O` [Indirubin-3'-oxime], the “% 25 nM CA200645 binding” value (% of control wells (1% DMSO and 25 nM CA200645), compounds at 10 µM, […], mean ± SD, three experiments in duplicate) was 50.6 ± 24.7%.

Take `Cc1cc([C@@H]2CCCN2C)on1.Cl` [ABT-418 hydrochloride]: the “% 25 nM CA200645 binding” value was found to be 101.9 ± 4.7%.

Consider `NC(CP(=O)(O)O)C(=O)O` (racemic) [(±)-2-Amino-3-phosphonopropionic acid], for which the “% 25 nM CA200645 binding” value is reported as 96.0 ± 3.9%.

Regarding `O=C(O)CC[N+](=O)[O-]` [3-Nitropropionic acid], the “% 25 nM CA200645 binding” value is 111.3 ± 13.2%.

Consider `Br.Cc1cccc(C2CN(C)CCc3c2cc(O)c(O)c3Cl)c1` (centres unmarked) [SKF 83959 hydrobromide], for which the “% 25 nM CA200645 binding” value is listed as 97.9 ± 6.2%.

Take `COc1cc([C@@H]2c3cc4c(cc3[C@H](O)[C@H]3COC(=O)[C@H]23)OCO4)cc(OC)c1OC` [Podophyllotoxin]: the “% 25 nM CA200645 binding” value stood at 97.7 ± 17.3%.

For `O=C(CCCN1CCC2(CC1)C(=O)NCN2c1ccccc1)c1ccc(F)cc1` [Spiperone hydrochloride], the “% 25 nM CA200645 binding” value is reported as 85.1 ± 18.3%.

Take `Cl.Nc1cc(Cl)c(N=C2NCCN2)c(Cl)c1` [p-Aminoclonidine hydrochloride]: the “% 25 nM CA200645 binding” value stood at 89.0 ± 23.3%.

As to `O=[N+]([O-])c1cc(O)c(O)c([N+](=O)[O-])c1` [3,5-Dinitrocatechol], the “% 25 nM CA200645 binding” value was 100.0 ± 11.8%.

Consider `CC(CN1c2ccccc2Sc2ccccc21)N(C)C` (centres unmarked) [Promethazine hydrochloride], for which the “% 25 nM CA200645 binding” value is 96.7 ± 11.4%.

As for `CNc1ncnc2c1ncn2[C@H]1C[C@H](OP(=O)(O)O)[C@@H](COP(=O)(O)O)O1` [MRS 2179], the “% 25 nM CA200645 binding” value was 108.4 ± 2.3%.

On to `O=c1oc(Cl)c(Cl)c2ccccc12` [3,4-Dichloroisocoumarin], for which the “% 25 nM CA200645 binding” value was determined as 95.8 ± 9.3%.

Take `C[C@](N)(Cc1ccc(O)c(O)c1)C(=O)O` [L-alpha-Methyl DOPA]: the “% 25 nM CA200645 binding” value was 92.6 ± 21.6%.

In the case of `CN1C[C@H](O)[C@@H](O)[C@H](O)[C@H]1CO` [N-Methyl-1-deoxynojirimycin], the “% 25 nM CA200645 binding” value was found to be 100.7 ± 20.9%.

For the compound `O=[N+]([O-])c1ccc(CNc2nc(NCc3cccc(C(F)(F)F)c3)nc3nc[nH]c23)cc1` [TNP], the “% 25 nM CA200645 binding” value amounted to 61.8 ± 11.7%.

Take `C/C(=C\c1ccc(C(=O)O)cc1)c1ccc2c(c1)C(C)(C)CCC2(C)C` [TTNPB]: the “% 25 nM CA200645 binding” value is listed as 92.9 ± 11.5%.

`N=C(N)NC(=O)c1nc(Cl)c(N)nc1N` [Amiloride hydrochloride]: the “% 25 nM CA200645 binding” value came to 88.5 ± 23.0%.

For the compound `Cc1oncc1C(=O)Nc1ccc(C(F)(F)F)cc1` [Leflunomide], the “% 25 nM CA200645 binding” value was determined as 100.1 ± 5.3%.

In the case of `NCCc1ccc(O)c(O)c1` [Dopamine hydrochloride], the “% 25 nM CA200645 binding” value was determined as 93.0 ± 11.1%.

As for `CCN(CC)CCNC(=O)c1ccc(NC(C)=O)cc1.Cl` [N-Acetylprocainamide hydrochloride], the “% 25 nM CA200645 binding” value is recorded as 86.4 ± 17.7%.

Consider `O=c1[nH]c2cc(C(F)(F)F)ccc2n1-c1cc(C(F)(F)F)ccc1O` [NS-1619], for which the “% 25 nM CA200645 binding” value stood at 94.9 ± 11.8%.

Take `CC(=O)Nc1nnc(S(N)(=O)=O)s1` [Acetazolamide]: the “% 25 nM CA200645 binding” value was determined as 92.4 ± 4.0%.

With `CC(C)(C)NCC(O)COc1cccc2[nH]c(=O)[nH]c12.Cl` (racemic) [(±)-CGP-12177A hydrochloride], the “% 25 nM CA200645 binding” value amounted to 114.1 ± 10.3%.

Turning to `Brc1c(Br)c(Br)c2n[nH]nc2c1Br` [TBB], the “% 25 nM CA200645 binding” value turned out to be 67.4 ± 13.4%.

For `CC(C)c1ccc2c(c1)c(SC(C)(C)C)c(CC(C)(C)C(=O)O)n2Cc1ccc(Cl)cc1` [MK-886], the “% 25 nM CA200645 binding” value is recorded as 98.7 ± 12.2%.

Take `C[N+]1(CCCCC[N+]2(C)CCCC2)CCCC1.O=C([O-])C(O)C(O)C(=O)O.O=C([O-])C(O)C(O)C(=O)O` [Pentolinium di[L(+)-tartrate]]: the “% 25 nM CA200645 binding” value amounted to 106.3 ± 2.7%.

Take `CCN(CC)C(C)CN1c2ccccc2Sc2ccccc21` (centres unmarked) [Ethopropazine hydrochloride]: the “% 25 nM CA200645 binding” value came out at 108.3 ± 15.2%.

For the compound `CCN(CC)CCCN(c1ccccc1)C1Cc2ccccc2C1` [Aprindine hydrochloride], the “% 25 nM CA200645 binding” value is 96.8 ± 13.3%.

In the case of `Nc1nc(N)c2nc(CNc3ccc(C(=O)N[C@@H](CCC(=O)O)C(=O)O)cc3)cnc2n1` [Aminopterin], the “% 25 nM CA200645 binding” value came to 91.1 ± 3.5%.

For `CC(NCCc1ccc(O)cc1)C(O)c1ccc(O)cc1` (centres unmarked) [Ritodrine hydrochloride], the “% 25 nM CA200645 binding” value is 99.4 ± 8.5%.

Consider `Nc1nc(O)c2ncn(COC(CO)CO)c2n1` [Ganciclovir], for which the “% 25 nM CA200645 binding” value is listed as 96.3 ± 6.5%.

With `Br.C=CCN1CCc2cc(O)c(O)cc2C(c2ccccc2)C1` (racemic) [(±)-SKF 38393, N-allyl-, hydrobromide], the “% 25 nM CA200645 binding” value is 99.7 ± 11.6%.

For `Cc1nc(N=Nc2ccc(S(=O)(=O)O)cc2S(=O)(=O)O)c(COP(=O)(O)O)c(C=O)c1O` [PPADS], the “% 25 nM CA200645 binding” value was determined as 106.1 ± 11.3%.

Turning to `CCCN(CCc1ccccc1)C1CCc2c(O)cccc2C1.Cl` (racemic) [(±)-PPHT hydrochloride], the “% 25 nM CA200645 binding” value is listed as 101.7 ± 5.1%.

Take `CCN(CC)CCNC(=O)c1cc(Cl)c(N)cc1OC.Cl` [Metoclopramide hydrochloride]: the “% 25 nM CA200645 binding” value was found to be 106.5 ± 2.9%.

As for `Cn1c(=O)[nH]c2ncn(C)c2c1=O` [1,7-Dimethylxanthine], the “% 25 nM CA200645 binding” value came to 100.9 ± 19.4%.

Consider `NS(=O)(=O)Cc1noc2ccccc12` [Zonisamide sodium], for which the “% 25 nM CA200645 binding” value was 98.6 ± 10.8%.

As to `CCC(NC(C)C)C(O)c1ccc(O)c(O)c1.CS(=O)(=O)O` (centres unmarked) [Isotharine mesylate], the “% 25 nM CA200645 binding” value was 102.1 ± 6.6%.

`NC(CCCCCP(=O)(O)O)C(=O)O` (racemic) [(±)-2-Amino-7-phosphonoheptanoic acid]: the “% 25 nM CA200645 binding” value is 52.2 ± 10.8%.

`Oc1ncnc2[nH]ncc12` [Allopurinol]: the “% 25 nM CA200645 binding” value is 99.8 ± 7.2%.

For the compound `CCCN1CCc2cccc3c2[C@H]1Cc1ccc(O)c(O)c1-3.Cl` [R(-)-Propylnorapomorphine hydrochloride], the “% 25 nM CA200645 binding” value was determined as 96.1 ± 7.1%.

Turning to `CCN(CC)C(=O)c1ccc(O)c(OC)c1` [Vanillic acid diethylamide], the “% 25 nM CA200645 binding” value worked out at 101.7 ± 2.4%.

`Cc1[nH]c2ccc(O)cc2c1CCN.O=C(O)/C=C\C(=O)O` [2-Methyl-5-hydroxytryptamine maleate]: the “% 25 nM CA200645 binding” value turned out to be 104.7 ± 14.7%.

As for `Cl.c1ccc(CN(CC2=NCCN2)c2ccccc2)cc1` [Antozoline hydrochloride], the “% 25 nM CA200645 binding” value is listed as 97.0 ± 6.0%.

Take `CC(C)(C)c1ccc(C(O)CCCN2CCC(C(O)(c3ccccc3)c3ccccc3)CC2)cc1` (centres unmarked) [Terfenadine]: the “% 25 nM CA200645 binding” value came out at 101.9 ± 5.3%.

In the case of `CC12NC(Cc3ccccc31)c1ccccc12.O=C(O)/C=C\C(=O)O` (single isomer, unassigned; (+)) [(+)-MK-801 hydrogen maleate], the “% 25 nM CA200645 binding” value is 104.8 ± 18.5%.

On to `NC(=O)CN1CCCC1=O` [Piracetam], for which the “% 25 nM CA200645 binding” value worked out at 110.0 ± 4.3%.

Regarding `C[C@H](Cc1ccc(OCC(=O)[O-])cc1)NC[C@H](O)c1cccc(Cl)c1.[Na+]` [BRL 37344 sodium], the “% 25 nM CA200645 binding” value came out at 98.2 ± 9.4%.

Turning to `N[C@H](CO)C(=O)O` [D-Serine], the “% 25 nM CA200645 binding” value turned out to be 100.2 ± 11.0%.
